Experimental data from patent US10723699B2 (Hyundai Pharm Co., Ltd., priority 2015, dated 2020).
Like-named read-outs stand apart in the source and are kept apart here.

Biological target: T1, G protein-coupled receptor 119 (GPR-119) (Mesocricetus auratus, UniProt A0A1U8CD06)
T1 construct: hamster-derived β-cells containing G protein-coupled receptor 119 (GPR-119), HIT-T15 cells; host or cells: HIT-T15 (hamster pancreatic β-cells)
T1 sequence (A0A1U8CD06 1-334): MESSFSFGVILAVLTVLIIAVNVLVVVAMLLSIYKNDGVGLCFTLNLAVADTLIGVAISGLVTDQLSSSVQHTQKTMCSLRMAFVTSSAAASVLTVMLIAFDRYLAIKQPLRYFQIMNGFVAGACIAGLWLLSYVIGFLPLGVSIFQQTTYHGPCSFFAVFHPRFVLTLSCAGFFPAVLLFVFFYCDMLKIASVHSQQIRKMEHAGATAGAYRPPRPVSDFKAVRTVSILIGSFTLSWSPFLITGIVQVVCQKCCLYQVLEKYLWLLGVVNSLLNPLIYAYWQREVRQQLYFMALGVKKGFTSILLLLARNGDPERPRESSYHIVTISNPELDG
Assay: cAMP activity in HIT-T15 cells (cAMP dynamic kit, FRET)
Format: cell-based, hamster
Outline: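 Hamster HIT-T15 cells (60,000/well) were treated next day with compound at six concentrations, 0.0032–10 μM, for 1 h at 37° C. Cells were then lysed and cAMP measured by competitive HTRF immunoassay (D2-cAMP, cryptate anti-cAMP). Activity was derived as the change in FRET signal relative to DMSO.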

[1] = 1 hour at 37° C., six concentrations 0.0032 to 10 μM, read-out: EC50

SMILES | EC50 [1] | EC50 (Table 2, read-out: EC50 value) | EC50 (EC50 (nM), 1 hour at 37° C., six concentrations 0.0032 to 10 μM) | EC50 (EC50 value, Table 2)
CCc1cnc(N2CCC(COc3ccc(C4=CCC(C(=O)NC5CCCCC5)CC4)cc3F)CC2)nc1 (centres unmarked) [Example 305, N-cyclohexyl-4-(4-((1-(5-ethylpyrimidin-2-yl)piperidin-4-yl)methoxy)-3-fluorophenyl)cyclohex-3-enecarboxamide] | 24 nM | ≤ 50 nM |  | 
CC(C)OC(=O)N1CCC(COc2ccc(C3=CCC(C(=O)N4CCCC4)CC3)cc2F)CC1 (centres unmarked) [Example 401, isopropyl 4-((2-fluoro-4-(4-(pyrrolidine-1-carbonyl)cyclohex-1-enyl)phenoxy)methyl)piperidine-1-carboxylate] | 34 nM | ≤ 50 nM |  | 
CC(C)(C)OC(=O)N1CCC(COc2ccc(C3=CCC(C(=O)N4CCC(C#N)CC4)CC3)cc2)CC1 (centres unmarked) [Example 262] | 7 nM | ≤ 50 nM |  | 
CC(C)c1noc(N2CCC(COc3ccc(C4=CCC(C(=O)N5CCC(=NO)CC5)CC4)cc3)CC2)n1 (centres unmarked) [Example 276, (4-(hydroxyimino)piperidin-1-yl)(4-(4-((1-(3-isopropyl-1,2,4-oxadiazol-5-yl)piperidin-4-yl)methoxy)phenyl)cyclohex-3-enyl)methanone] |  | ≤ 50 nM |  | 
O=C(Oc1ccccc1)N1CCC(COc2ccc(C3=CCC(C(=O)N4CCOCC4)CC3)cc2F)CC1 (centres unmarked) [Example 445, phenyl 4-((2-fluoro-4-(4-(morpholine-4-carbonyl)cyclohex-1-enyl)phenoxy)methyl)piperidine-1-carboxylate] | 11 nM | ≤ 50 nM |  | 
CCc1cnc(N2CCC(COc3ccc(C4=CCC(C(=O)N5CCC(C(F)(F)F)CC5)CC4)c(F)c3)CC2)nc1 (centres unmarked) [Example 452, (4-(4-((1-(5-ethylpyrimidin-2-yl)piperidin-4-yl)methoxy)-2-fluorophenyl)cyclohex-3-enyl)(4-(trifluoromethyl)piperidin-1-yl)methanone] | 18 nM | ≤ 50 nM |  | 
CCc1cnc(N2CCC(COc3ccc(C4=CCC(C(=O)N5CCC(O)CC5)CC4)cn3)CC2)nc1 (centres unmarked) [Example 353, (4-(6-((1-(5-ethylpyrimidin-2-yl)piperidin-4-yl)methoxy)pyridin-3-yl)cyclohex-3-enyl)(4-hydroxypiperidin-1-yl)methanone] | 58 nM |  |  | 
CCc1cnc(N2CCC(COc3ccc(C4=CCC(C(=O)N5CCC(C#N)CC5)CC4)c(F)c3)CC2)nc1 (centres unmarked) [Example 424, 1-(4-(4-((1-(5-ethylpyrimidin-2-yl)piperidin-4-yl)methoxy)-2-fluorophenyl)cyclohex-3-enecarbonyl)piperidine-4-carbonitrile] | 21 nM | ≤ 50 nM |  | 
CCc1cnc(N2CCC(COc3ccc(C4=CCC(C(=O)N5CCN(C6CC6)CC5)CC4)cc3)CC2)nc1 (centres unmarked) [Example 395, (4-cyclopropylpiperazin-1-yl)(4-(4-((1-(5-ethylpyrimidin-2-yl)piperidin-4-yl)methoxy)phenyl)cyclohex-3-enyl)methanone] | 14 nM |  |  | 
CCc1cnc(N2CCC(COc3ccc(C4=CCC(C(=O)N5CCC(O)CC5)CC4)cc3F)CC2)nc1 (centres unmarked) [Example 294, (4-(4-((1-(5-ethylpyrimidin-2-yl)piperidin-4-yl)methoxy)-3-fluorophenyl)cyclohex-3-enyl)(4-hydroxypiperidin-1-yl)methanone] | 23 nM | ≤ 50 nM |  | 
CC(C)(C)OC(=O)N1CCC(COc2ccc(C3=CCC(C(=O)N4CCc5ccccc5C4)CC3)cc2)CC1 (centres unmarked) [Example 239, tert-butyl 4-((4-(4-(1,2,3,4-tetrahydroisoquinoline-2-carbonyl)cyclohex-1-enyl)phenoxy)methyl)piperidine-1-carboxylate] |  | ≤ 50 nM |  | 
CC(C)c1noc(N2CCC(COc3ccc(C4=CCC(C(=O)N5CCC(=O)CC5)CC4)cc3F)CC2)n1 (centres unmarked) [Example 345, 1-(4-(3-fluoro-4-((1-(3-isopropyl-1,2,4-oxadiazol-5-yl)piperidin-4-yl)methoxy)phenyl)cyclohex-3-enecarbonyl)piperid in-4-one] |  |  | 36 nM | ≤ 50 nM
CCC(F)(F)C(=O)N1CCC(COc2ccc(C3=CCC(C(=O)N4CCCC4)CC3)cc2F)CC1 (centres unmarked) [Example 436, 2,2-difluoro-1-(4-((2-fluoro-4-(4-(pyrrolidine-1-carbonyl)cyclohex-1-enyl)phenoxy)methyl)piperidin-1-yl)butan-1-one] | 9.8 nM | ≤ 50 nM |  | 
CC(C)c1noc(N2CCC(COc3ccc(C4=CCC(C(=O)N5CCC(CCO)CC5)CC4)cn3)CC2)n1 (centres unmarked) [Example 320, (4-(2-hydroxyethyl)piperidin-1-yl)(4-(6-((1-(3-isopropyl-1,2,4-oxadiazol-5-yl)piperidin-4-yl)methoxy)pyridin-3-yl)cyclohex-3-enyl)methanone] | 53 nM |  |  | 
CCc1cnc(N2CCC(COc3ccc(C4=CCC(C(=O)N5CCC(C(N)=O)CC5)CC4)cc3F)CC2)nc1 (centres unmarked) [Example 324, 1-(4-(4-((1-(5-ethylpyrimidin-2-yl)piperidin-4-yl)methoxy)-3-fluorophenyl)cyclohex-3-enecarbonyl)piperidine-4-carboxamide] | 27 nM | ≤ 50 nM |  | 
CCc1cnc(N2CCC(COc3ccc(C4=CCC(C(=O)N5CCC(=NO)CC5)CC4)cc3F)CC2)nc1 (centres unmarked) [Example 377, (4-(4-((1-(5-ethylpyrimidin-2-yl)piperidin-4-yl)methoxy)-3-fluorophenyl)cyclohex-3-enyl)(4-(hydroxyimino)piperidin-1-yl)methanone] | 11 nM | ≤ 50 nM |  | 
CCc1cnc(N2CCC(COc3ccc(C4=CCC(C(=O)N5CCCCC5)CC4)cc3F)CC2)nc1 (centres unmarked) [Example 292, (4-(4-((1-(5-ethylpyrimidin-2-yl)piperidin-4-yl)methoxy)-3-fluorophenyl)cyclohex-3-enyl)(piperidin-1-yl)methanone] | 12 nM | ≤ 50 nM |  | 
CCc1cnc(N2CCC(COc3ccc(C4=CCC(C(=O)N5CCN(C(=O)OC(C)(C)C)CC5)CC4)cc3F)CC2)nc1 (centres unmarked) [Example 383, tert-butyl 4-(4-(4-((1-(5-ethylpyrimidin-2-yl)piperidin-4-yl)methoxy)-3-fluorophenyl)cyclohex-3-enecarbonyl)piperazine-1-carboxylate] | 48 nM | ≤ 50 nM |  | 
CC(C)c1noc(N2CCC(COc3ccc(C4=CCC(C(=O)N5CCC(C#N)CC5)CC4)cn3)CC2)n1 (centres unmarked) [Example 338, 1-(4-(6-((1-(3-isopropyl-1,2,4-oxadiazol-5-yl)piperidin-4-yl)methoxy)pyridin-3-yl)cyclohex-3-enecarbonyl)piperidine-4-carbonitrile] | 40 nM | ≤ 50 nM |  | 
CCc1cnc(N2CCC(COc3ccc(C4=CCC(C(=O)N5CCOCC5)CC4)cc3C)CC2)nc1 (centres unmarked) [Example 417, (4-(4-((1-(5-ethylpyrimidin-2-yl)piperidin-4-yl)methoxy)-3-methylphenyl)cyclohex-3-enyl)(morpholino)methanone] | 50 nM | ≤ 50 nM |  | 
O=C(OC(C(F)(F)F)C(F)(F)F)N1CCC(COc2ccc(C3=CCC(C(=O)N4CCOCC4)CC3)cc2F)CC1 (centres unmarked) [Example 446, 1,1,1,3,3,3-hexafluoropropan-2-yl 4-((2-fluoro-4-(4-(morpholine-4-carbonyl)cyclohex-1-enyl)phenoxy)methyl)piperidine-1-carboxylate] | 20 nM | ≤ 50 nM |  | 
Cn1nnnc1N1CCC(COc2ccc(C3=CCC(C(=O)N4CCCC4)CC3)cc2F)CC1 (centres unmarked) [Example 420, (4-(3-fluoro-4-((1-(1-methyl-1H-tetrazol-5-yl)piperidin-4-yl)methoxy)phenyl)cyclohex-3-enyl)(pyrrolidin-1-yl)methanone] | 110 nM |  |  | 
CCCNC(=O)N1CCN(C(=O)C2CC=C(c3ccc(OCC4CCN(c5ncc(CC)cn5)CC4)cc3)CC2)CC1 (centres unmarked) [Example 412, 4-(4-(4-((1-(5-ethylpyrimidin-2-yl)piperidin-4-yl)methoxy)phenyl)cyclohex-3-enecarbonyl)-N-propylpiperazine-1-carboxamide] | 37 nM | ≤ 50 nM |  | 
CC(C)(C)OC(=O)N1CCC(COc2ccc(C3=CCC(C(=O)N4CCC5(C=Cc6ccccc65)CC4)CC3)cc2)CC1 (centres unmarked) [Example 264, tert-butyl 4-((4-(4-(spiro[indene-1,4′-piperidin]-1′-ylcarbonyl)cyclohex-1-enyl)phenoxy)methyl)piperidine-1-carboxylate] |  | ≤ 50 nM |  | 
CCc1cnc(N2CCC(COc3ccc(C4=CCC(C(=O)N5CCC(CCO)CC5)CC4)cc3F)CC2)nc1 (centres unmarked) [Example 296, (4-(4-((1-(5-ethylpyrimidin-2-yl)piperidin-4-yl)methoxy)-3-fluorophenyl)cyclohex-3-enyl)(4-(2-hydroxyethyl)piperidin-1-yl)methanone] | 6.8 nM | ≤ 50 nM |  | 
CC(C)(C)OC(=O)N1CCC(COc2ccc(C3=CCC(C(=O)N4CCC(C#N)CC4)CC3)nc2)CC1 (centres unmarked) [Example 340, tert-butyl 4-((6-(4-(4-cyanopiperidine-1-carbonyl)cyclohex-1-enyl)pyridin-3-yloxy)methyl)piperidine-1-carboxylate] | 28 nM | ≤ 50 nM |  | 
CCc1cnc(N2CCC(COc3ccc(C4=CCC(C(=O)NC5CCCC5)CC4)cc3F)CC2)nc1 (centres unmarked) [Example 304, N-cyclopentyl-4-(4-((1-(5-ethylpyrimidin-2-yl)piperidin-4-yl)methoxy)-3-fluorophenyl)cyclohex-3-enecarboxamide] | 20 nM | ≤ 50 nM |  | 
